Laboratory results taken from patent US8591943B2, “Pyrazolo[1,5-a]pyrimidine derivatives as mTOR inhibitors” (Merck Sharp & Dohme Corp., priority 2009, dated 2013).
pIC50: −log10 of the molar value.

How the values were obtained:
[1] = target: T1, Cyclin E/CDK2 (Homo sapiens, UniProt P24941); experiment: In Vitro Cyclin E/CDK2 Kinase Assay; assay type: biochemical; settings: rated A-F
T1 construct: made in house; host or cells: SF9 cells, baculovirus co-infection
Excerpt: Cyclin E was cloned into pVL1393 (Pharmingen, La Jolla, Calif.) by PCR, with the addition of 5 histidine residues at the amino-terminal end to allow purification on nickel resin. The expressed protein was approximately 45 kDa. CDK2 was cloned into pVL1393 by PCR, with the addition of a haemaglutinin epitope tag at the carboxy-terminal end (YDVPDYAS). The expressed protein was approximately 34 kDa in size.
Recombinant baculoviruses expressing cyclin E and CDK2 were co-infected into SF9 cells at an equal multiplicity of infection (MOI=5), for 48 hrs. Cells were harvested by centrifugation at 1000 RPM for 10 minutes, then pellets lysed on ice for 30 minutes in five times the pellet volume of lysis buffer containing 50 mM Tris pH 8.0, 150 mM NaCl, 1% NP40, 1 mM DTT and protease inhibitors (Roche Diagnostics GmbH, Mannheim, Germany). Lysates were spun down at 15000 RPM for 10 minutes and the supernatant retained. 5 mL of nickel beads (for one liter of SF9 cells) were washed three times in lysis buffer (Qiagen GmbH, Germany). Imidazole was added to the baculovirus supernatant to a final concentration of 20 mM, then incubated with the nickel beads for 45 minutes at 4° C. Proteins were eluted with lysis buffer containing 250 mM imidazole. Eluate was dialyzed about 15 hours in 2 liters of kinase buffer containing 50 mM Tris pH 8.0, 1 mM DTT, 10 mM MgCl2, 100 μM sodium orthovanadate and 20% glycerol. Enzyme was stored in aliquots at −70° C.
Cyclin E/CDK2 kinase assays can be performed as described below in low protein binding 96-well plates (Corning Inc, Corning, N.Y.).
The substrate used in these reactions is a biotinylated peptide derived from Histone H1 (from Amersham, UK). The substrate is thawed on ice and diluted to 2 μM in kinase buffer. Test compounds are diluted in 10% DMSO to desirable concentrations. For each kinase reaction, 20 μL of the 50 μg/mL enzyme solution (1 μg of enzyme) and 20 μl of the 2 μM substrate solution are mixed, then combined with 10 μL of diluted compound in each well for testing. The kinase reaction is initiated by addition of 50 μL of 2 μM ATP and 0.1 μCi of ^33P-ATP (from Amersham, UK). The reaction is allowed to run for 1 hour at room temperature, then is stopped by adding 200 μL of stop buffer containing 0.1% Triton X-100, 1 mM ATP, 5 mM EDTA, and 5 mg/mL streptavidine coated SPA beads (from Amersham, UK) for 15 minutes. The SPA beads are then captured onto a 96-well GFIB filter plate (Packard/Perkin Elmer Life Sciences) using a Filtermate universal harvester (Packard/Perkin Elmer Life Sciences.). Non-specific signals are eliminated by washing the beads twice with 2M NaCl then twice with 2 M NaCl with 1% phosphoric acid. The radioactive signal can then be measured using, for example, a TopCount 96 well liquid scintillation counter (from Packard/Perkin Elmer Life Sciences).

[2] = target: T2, recombinant His-CHK1 (Homo sapiens, UniProt O14757); experiment: CHK1 In Vitro Kinase Assay
T2 sequence (O14757 1-265 limits assumed): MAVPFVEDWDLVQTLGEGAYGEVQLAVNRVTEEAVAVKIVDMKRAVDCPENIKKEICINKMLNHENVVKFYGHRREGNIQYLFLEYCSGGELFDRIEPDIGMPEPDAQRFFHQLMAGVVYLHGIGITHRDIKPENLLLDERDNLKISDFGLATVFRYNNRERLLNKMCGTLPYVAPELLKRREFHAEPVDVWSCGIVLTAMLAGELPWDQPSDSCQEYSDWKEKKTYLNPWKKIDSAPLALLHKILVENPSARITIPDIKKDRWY

[3] = target: mTOR enzyme (Homo sapiens, UniProt P42345); experiment: mTOR Kinase Assay; assay type: biochemical; settings: rated A-F
Protocol: The mTOR assay buffer contains 10 mM hepes (pH 7.4), 50 mM NaCl, 100 μg/ml BSA, 50 mM B-glycerophosphate, 10 mM MnCl2 and 0.5 mM DTT. 20 ng of mTOR enzyme is preincubated with the compound for 10 minutes. 5 μM ATP and 0.1 μM GSTS6K is added. The reaction is incubated for one hour at 30° C. Anti phospho p70S6K (about 1.7 ng/well) and anti GSTXL665 (1:1 Ratio with the substrate GSTS6K) are added after incubating. The plates are read at least 2 hours after adding the anti phospho p70S6K and the anti GSTXL665.

## Nc1c(Br)c(N2CCN3C(=O)CCC3C2)nc2c(-c3cnc4ccccc4c3)cnn12 (stereo not drawn) [Compound 10.26]
[1]
  pIC50: < 5.30
[2]
  pIC50: < 5.30
[3]
  pIC50: > 7.00

## Nc1c(Br)c(CN2CCN3C(=O)NC(=O)C3C2)nc2c(-c3cnc4ccccc4c3)cnn12 (stereo not drawn) [Compound 13.4]
[1]
  pIC50: < 5.30
[2]
  pIC50: < 5.30
[3]
  pIC50: > 7.00

## Nc1c(Br)c(C2CCC(CC(=O)O)CC2)nc2c(-c3cnc4ccccc4c3)cnn12 (single isomer, unassigned) [Compound 5.4, 2-(4-(7-amino-6-bromo-3-(quinolin-3-yl)pyrazolo[1,5-a]pyrimidin-5-yl)cyclohexyl)acetic acid]
[1]
  pIC50: < 5.30
[2]
  pIC50: < 5.30
[3]
  pIC50: > 7.00

## Nc1c(Br)c(CNC2CCOCC2)nc2c(-c3cnc4ccccc4c3)cnn12 [Compound 13.16]
[1]
  pIC50: < 5.30
[2]
  pIC50: < 5.30
[3]
  pIC50: > 7.00

## Nc1c(Br)c(N2CCN3C(=O)NC(=O)CC3C2)nc2c(-c3cnc4ccccc4c3)cnn12 (stereo not drawn) [Compound 10.5]
[1]
  pIC50: 6.00 to 6.30
[2]
  pIC50: < 5.30
[3]
  pIC50: > 7.00

## Nc1c(Br)c(N2CCN3C(=O)NC(=O)C3C2)nc2c(-c3cnc4ccccc4c3)cnn12 (stereo not drawn) [Compound 10.60]
[1]
  pIC50: < 5.30
[2]
  pIC50: < 5.30
[3]
  pIC50: > 7.00

## Nc1c(Br)c(N2CCC[S+]([O-])CC2)nc2c(-c3cnc4ccccc4c3)cnn12 (stereo not drawn) [Compound 10.63]
[1]
  pIC50: < 5.30
[2]
  pIC50: < 5.30
[3]
  pIC50: > 7.00
